Reference: patent US12697322B2, “Methods of treating cancer using androgen receptor antagonists” (Garvan Institute of Medical Research, priority 2019, dated 2026)
“Also recorded” adds a separate entry of the source.

Key:
[1] = system: AR full length (100 kDa); test: AR siRNA knockdown, western blot; type: cell-based, human; settings: HCC38 CD44^Hi cells, 20 nM siRNA, 72 h post transfection
Description: Protein was extracted from cell lysates using RIPA lysis buffer (sc-24948) or specific lysis buffer for phospho-proteins detection (20 mM Tris-HC1 pH 7.6, 137 mM NaCl, 1% NP40, 0.5% Na-deoxycholate, 10 mM NaF, 20 mM β-glycerophosphate, 1 mM Na-orthovanadate and 1:200 complete protease inhibitors). 25-30 μg of proteins were run in a 4-12% Bis-tris gel (Invitrogen). Proteins were transferred to a PVDF membrane (BioRad). After blocking with 5% BSA (w/v) and 0.05% (v/v) Tween-20 in PBS, the membranes were incubated overnight with the indicated antibodies, washed with PBS 0.05% (v/v) Tween-20 and incubated with the corresponding horseradish peroxidase-conjugated secondary antibodies (Cell Signaling; Dil 1/5000, Table 3) for 30 min. Blots were developed using Western Lightning Plus ECL (PerkinElmer) and FusionFx7 Digital Imager, Band intensities were quantified using Fiji (Schindelin et al., 2012) and results were represented relative to controls.
siRNAs targeting exon 1 and 7 of AR full length were designed in-house (SEQ ID NOs: 6 and 7). HCC38 CD44^Hi cells (10^5/well) were seeded in M6 plate wells 24 hours prior to siRNA transfection. 20 nM of siRNA CT, siRNA AR Ex1 or AR Ex7 were delivered using lipofectamine 3000 (Thermofisher) as per manufacturer instructions.

[2] = system: CD44^Hi cells isolated from HMLER and HCC38 cell lines; test: Cell proliferation assay (CyQuant); type: cell-based, human; settings: for CD44^Hi proliferation: CD44^Hi cells from HMLER and HCC38
Description: HMLER, HCC38 and MDA-MB-231 cells were plated in triplicate in 96-well plates at the densities outlined in Table 3. After 24 hours, cells were treated with various chemotherapeutic agents at the following doses: Doxorubicin (0 nM, 25 nM, 50 nM, 75 nM, 100 nM, 200 nM), Cisplatin (0 μg/ml, 0.1 μg/ml, 0.5 μg/ml, 1 μg/ml, 2 μg/ml, 5 μg/ml) or Docetaxel (0 nM, 1 nM, 5 nM, 10 nM, 25 nM, 50 nM); Androgen receptor agonists: Enobosarm (0 nM, 25 nM, 50 nM, 100 nM, 200 nM, 400 nM) or DHT (0 nM, 1 nM, 5 nM, 10 nM, 20 nM, 40 nM); or AR antagonist: Seviteronel (0 nM, 0.5 nM, 2 nM, 10 nM, 20 nM, 50 nM). Assays were harvested daily for five days by removing culture media and storing at −80′C. Cell proliferation was determined using CyQuant Cell Proliferation assay kit according to manufacturer's protocol (ThermoFisher Scientific) and fluorescence was measured at ~480 nm excitation and ~520 nm emission using a microplate reader.

[3] = system: HMLER and HCC38 CD44^Lo cells; test: Flow cytometry of chemotherapy-induced CD44^Lo to CD44^Hi plasticity; type: cell-based, human; settings: for blocking of chemotherapy-induced CD44^Lo-to-CD44^Hi transitions: with chemotherapy simultaneously for 72 hours, Seviteronel 10 μM; for induction of CD44^Lo-to-CD44^Hi transition by chemotherapy: one dose of chemotherapy for 72 hours
Excerpt: Cells were stained and fixed as with DHT treatment.
Using purified populations of CD44^Lo cells (with no CD44^Hi fraction) the effects of chemotherapy on cellular plasticity was investigated using flow cytometry.

[4] = system: HMLER-CD44Hi and HCC38 CD44Hi cells; test: Tumoursphere formation assay; type: cell-based, human; settings: CD44^Hi cells, counted at Day 14
Description: Single cell suspensions were plated in ultra-low attachment 96-well plates (Corning #CLS3474, New York, USA). HMLE-CD44^Hi cells were plated at a density of 50 cells/well in 100 μl of BPA-free MEGM media (Lonza # CC-3150, Basal, Switzerland). HCC38-CD44^Hi cells were plated at a density of 100 cells/well in serum-free RPMI with 1% penicillin/streptomycin, 20 ng/ml EGF, 20 ng/ml FGFb, 4 μg/mL heparin, 1×B27 and 1% methyl cellulose (Sigma). Media was replenished every five days by adding 50 μL of the appropriate tumoursphere media to each well. Tumourspheres were counted at Day 14. Results are presented as tumoursphere formation efficiency (number of spheres per well divided by the number of cells seeded per well). At Day 14, mammospheres were collected using a 40 μm cell strainer, washed with PBS and dissociated using trypsin-EDTA solution, and stained with anti-CD44PECy7 and anti-CD104PE as per standard FACS staining protocol.

[5] = system: HMLER-CD44Hi and HCC38 CD44Hi cells; test: Tumoursphere formation assay; type: cell-based, human
[6] = system: MDA-MB-231 EGFP-Luciferase cells; test: MDA-MB-231 xenograft, Seviteronel and Docetaxel (Example 5, FIG. 11); type: in vivo, mice; settings: Seviteronel 100 mg/kg daily oral gavage, DTX 40 mg/kg i.p., 3 doses
Description: Forty-eight mice were enrolled in the experiment and randomized into 4 treatment arms: Vehicle (Veh), Seviteronel (Sev), Docetaxel (DTX) or combination therapy (Sev+Dtx). Animals were 6-8 weeks of age at the time of injection. MDA-MB-231 EGFP-Luciferase cells were cultured in DMEM 10% FBS 1% P/S. On the surgery date, 1×10^6 cells resuspended in 20% Matrigel/DMEM were injected unilaterally into the mammary fat pad. Tumour growth was monitored twice per week to establish growth kinetics. Five weeks post-injection, when tumour size ranged between 50-100 mm^3, animals were randomized to receive daily oral gavage with either vehicle (1% Carboxymethylcellulose, 0.1% Tween-80 and 5% DMSO) or Seviteronel (100 mg/kg). Animals were dosed from Monday to Saturday, leaving 1 day recovery per week. After one week, animals were again randomized within the Vehicle or Seviteronel groups to Control or Chemotherapy (DTX). […] Metastatic burden and tumour size was determined using the IVIS-spectrum imaging system. […] The presence of metastatic cells in each organ was additionally determined by FACS analysis (fluorescence activate cell sorting) using a panel of antibodies previously established in the lab (CD298-PE, CD44-PEcy7 and CD104EF660). Results were analyzed and graphed using Flowjo3 and prism 8. […] Metastatic incidence was analyzed applying two-way ANOVA uncorrected Fisher's LSD test.

[7] = system: MDA_MB-231-EGFP-Luc cells; test: MDA-MB-231-EGFP-Luc orthotopic xenograft, Docetaxel and Seviteronel (Example 12, FIG. 12); type: in vivo, NSG female mice
Description: 1×10^6 MDA_MB-231-EGFP-Luc cells were injected orthotopically into the mammary fat pad of NSG female mice. 14 animals were enrolled per treatment arm to reach 80% statistical power. Tumour size was monitored by caliper measurement twice per week. At the time tumour size reached 50-150 mm^3 animals were randomized into treatment arms: Vehicle (Veh), Seviteronel (Sev), Docetaxel, Docetaxel+Seviteronel. Seviteronel (100 mg/kg) was administrated via oral gavage daily (6 days on+1 day off) for cycles of 4. Seviteronel was resuspended into a 5% DMSO, 0.1% Tween 80, Hydro-methylcellulose solution at a 5 mg/ml concentration. […] Growth kinetics were monitored through the course of treatment and plotted using graph-pad prism (V9). […] At treatment endpoint, animals were injected with luciferin (10 μl/gr of 15 mg/ml stock) and metastatic burden analyzed using an IVIS spectrum imager 10 min post injection. […]
1×10^6 MDA_MB-231-EGFP-Luc cells were injected orthotopically into the mammary fat pad of NSG female mice. […] Tumour size was monitored by caliper measurement twice per week. […] Growth kinetics were monitored through the course of treatment by caliper measurement. […] Metastasis development was monitored until animals reached ethical end-point by weekly IVIS imaging. […]

Compound: AR Ex7: in-house siRNA targeting AR exon 7, SEQ ID NO: 7 (GGAACUCGAUCGUAUCAUUUU; listed as RNA, chemistry not given here)
- expression of AR full length [1]: strong reduction

Compound: CNC(=O)c1ccc(N2C(=S)N(c3ccc(C#N)c(C(F)(F)F)c3)C(=O)C2(C)C)cc1F [Enzalutamide, 4-{3-[4-cyano-3-(trifluoromethyl)phenyl]-5,5-dimethyl-4-oxo-2-sulfanylideneimidazolidin-1-yl}-2-fluoro-iV-methylbenzamide]
- CD44^Hi proliferation [2]: decreased CD44Hi proliferation; also recorded: decrease CD44^Hi proliferation
- treatment required to equal the effect of Seviteronel ([2]; CD44^Hi proliferation and tumoursphere formation): daily treatment of Enzalutamide was required to equal one dose of Seviteronel
- blocking of chemotherapy-induced CD44^Lo-to-CD44^Hi transitions [3]: not as effective as Seviteronel

Compound: C[C@]12CC[C@H](O)CC1=CC[C@@H]1[C@@H]2CC[C@]2(C)C(c3cccnc3)=CC[C@@H]12 [Abiraterone, (3p)-17-(pyridin-3-yl) androsta-5, 16-dien-3-ol]
- CD44^Hi proliferation [2]: decreased CD44Hi proliferation; also recorded: decrease CD44^Hi proliferation
- tumoursphere formation (tumoursphere-forming efficiency) [4]: decrease

Compound: COc1cccc2c1C(=O)c1c(O)c3c(c(O)c1C2=O)C[C@@](O)(C(=O)CO)C[C@@H]3O[C@H]1C[C@H](N)[C@H](O)[C@H](C)O1 [Doxorubicin]
- induction of CD44^Lo-to-CD44^Hi transition by chemotherapy [3]: induce CD44^Lo cells to transition to the CD44^Hi state

Compound: CC(C)[C@](O)(c1ccc2cc(OC(F)F)c(OC(F)F)cc2c1)c1c[nH]nn1 [Seviteronel, (1S)-1-[6,7-bis(difluoromethoxy)naphthalen-2-yl]-2-methyl-1-(2H-triazol-4-yl)propan-1-ol]
- size of tumorspheres [5]: reduces the size of tumorspheres
- tumour growth [6]: significantly reduces tumour growth kinetics compared to control
- CD44^Hi proliferation [2]: decreased CD44Hi proliferation; also recorded: decrease CD44^Hi proliferation; also recorded: inhibits the growth of CD44^Hi cells
- blocking of chemotherapy-induced CD44^Lo-to-CD44^Hi transitions [3]: blocks chemotherapy-induced CD44^Lo-to-CD44^Hi transitions; also recorded: inhibits chemotherapy-induced CD44Lo-to-CD44-Hi plasticity; also recorded: can be blocked
- tumoursphere formation (tumoursphere-forming efficiency) [4]: decrease; also recorded: dose-dependently inhibits tumoursphere-forming ability
- tumour growth compared with Veh (FIG. 12B) ([7]; Seviteronel 150 mg/kg/day 1st week then 100 mg/kg/day for 3 weeks, Dtx 20 mg/kg i.p. x3): significantly reduces tumour growth compared with Veh treatmet arm

Compound: CC(=O)O[C@@]12CO[C@@H]1C[C@H](O)[C@@]1(C)C(=O)[C@H](O)C3=C(C)[C@@H](OC(=O)[C@H](O)[C@@H](NC(=O)OC(C)(C)C)c4ccccc4)C[C@@](O)([C@@H](OC(=O)c4ccccc4)[C@H]21)C3(C)C [Docetaxel]
- tumour growth [6]: significantly reduces tumour growth compared to Seviteronel alone
- induction of CD44^Lo-to-CD44^Hi transition by chemotherapy [3]: induce CD44^Lo cells to transition to the CD44^Hi state
- animals clear of metastasis (metastasis free survival) ([7]; 10 weeks following commencement of second round of treatment (Day 77), IVIS): 0%

Compound: siRNA AR Ex1: in-house siRNA against AR full length, SEQ ID NO: 6 (GCUUCUGGGUGUCACUAUGUU; listed as RNA, chemistry not given here)
- expression of AR full length [1]: strong reduction
